Paper PMC4331368, “HZ08 Reverse P-Glycoprotein Mediated Multidrug Resistance In Vitro and In Vivo” (PLoS ONE, 2015)
“And” between values parts separate entries of the source, which are not always exact repeats. Equal entries are not always repeated.

Assays:
KB-WT cells = assay: Cell cytotoxicity assay (CCK-8), KB-WT; type: cell-based, human; conditions: for IC50: Homo sapiens
Procedure: (§1) Briefly, cells (2,000/well) were seeded in 96-well plate and cultured at 37°C in 5% CO2 for 24h. […] After 72 h of treatment, 15μL Cell Counting Kit-8 solution was added to each well followed by another 2 h of incubation. The absorbance at 450nm and 600nm were then measured using a SpectraMax M5 microplate reader. The curves of growth inhibition rate were fitted with GraphPad Prism 5 and the IC50 values were calculated. Each assay was conducted three times in quadruplicate

KB-VCR cells = assay: Cell cytotoxicity assay (CCK-8), KB-VCR; type: cell-based, human; conditions: for IC50: Homo sapiens, 72 h; for IC50 / FR (fold-resistance): chemotherapeutic alone
Procedure: as §1

P-gp [1] = biological target: T1, P-gp (Homo sapiens, UniProt P08183); assay: Calcein-AM P-gp inhibition assay in MDCK-MDR1 cells; type: cell-based; conditions: 2μM GF120918 = 100%
T1 construct: expressed in transfected cells; host or cells: MDCK-MDR1 cells (canine kidney cells)
Procedure: The calcein-AM assay was optimized from previous studies.[28, 29] MDCK-MDR1 cells were cultured as described above. Cells were seeded at 8,000 cells/well (100μl of culture medium) in 96-well flat clear bottom black polystyrene plates. The medium was changed 24h after seeding and the assay was performed 48 h later. On the day of study, the medium was removed and plates were washed three times with phosphate-buffered saline (PBS). Test compounds at various concentrations were added to plates in 50μl of transport buffer containing 0.5% DMSO as solvent. Plates were incubated at 37°C for 30 min. Calcein-AM was added in 50μl of PBS to yield a final concentration of 10μM.
P-gp inhibition was calculated as described previously.[29] The curves of inhibition rates were fitted with GraphPad Prism 5 and the IC50 values were calculated. Each assay was conducted three times in quadruplicate.

[2] = biological target: T2, recombinant human ABCB1 membranes (Homo sapiens, UniProt P08183); assay: P-gp ATPase activity assay (Pgp-Glo, VER-stimulated); type: biochemical
T2 construct: purchased
Description: Sodium orthovanadate (Na3VO4) was used as an ABCB1 ATPase inhibitor. […] Luminescence was initiated by ATP detection buffer.

KB-WT xenografts = assay: KB-WT tumor xenograft model; type: in vivo, Balb/c nude mice; conditions: day 21, mean±SEM
Description: (§2) All the animal experiments were approved by the Institutional Animal Care and Use Committee at China Pharmaceutical University (Permit Number: CPU1201P) and carried out in strict accordance with the recommendations in the Guide for the Care and Use of Laboratory Animals of AAALAC international. Animals were acclimated for 5 days prior to study initiation. […] If any animal was moribund due to treatment associated toxicity or tumor over-growth (≥ 2000 mm^3) before scheduled sacrifice, it would be euthanized. At the endpoint, the animals were euthanized by using CO2 and all efforts were made to minimize suffering.
(§3) Body weight and the tumor growth were monitored twice a week. Tumor size was measured to the nearest 0.1 mm using vernier caliper and applying the formula: Tumor volume = length × width^2 × 0.5. Efficacy data was graphically represented as the mean tumor volume ± standard error of the mean (SEM). Tumors were collected for further analysis after last measurement.

KB-VCR xenografts = assay: KB-VCR tumor xenograft model; type: in vivo, Balb/c nude mice; conditions: for mean tumor volume / tumor weight: day 21
Description: as §2, §3

P-gp [3] = biological target: T1, P-gp; assay: MDCK-MDR1 monolayer transport assay; type: cell-based; conditions: dog
Procedure: MDCK-MDR1 cells could differentiate into columnar epithelium with tight junctions in three days later to form cell monolayer. […] If a drug was a P-gp substrate, its permeation from apical side (A) to basal side (B) would be inhibited and reduced, while the permeation from B to A would not be affected. When a P-gp inhibitor was added, the permeation of P-gp substrate from A to B could be increased.
MDCK-MDR1 cells were cultured in Dulbecco's MEM (DMEM) Medium supplemented with 10% fetal bovine serum (FBS) and 2 mM L-glutamine. […] The plates were incubated at 37°C with 5% CO2/95% air for 4 days and subsequently used for assays. […] Plates were incubated for 90 min in 5% CO2/95% air, 37°C CO2 incubator with slowly shaking (60 rpm). Apical and basolateral compartments were sampled at the end of the transport experiment and the tested substance concentrations in both compartments were determined by LC-MS/MS.
The apparent permeability (Papp) and efflux ratio were calculated based on the equations reported previously.[33]

[4] = KB-WT, chemotherapeutic alone, 72 h
[5] = 2 mg/kg modulator + VCR 2 mg/kg
[6] = 5 mg/kg modulator + VCR 2 mg/kg

T2 sequence (P08183 whole entry): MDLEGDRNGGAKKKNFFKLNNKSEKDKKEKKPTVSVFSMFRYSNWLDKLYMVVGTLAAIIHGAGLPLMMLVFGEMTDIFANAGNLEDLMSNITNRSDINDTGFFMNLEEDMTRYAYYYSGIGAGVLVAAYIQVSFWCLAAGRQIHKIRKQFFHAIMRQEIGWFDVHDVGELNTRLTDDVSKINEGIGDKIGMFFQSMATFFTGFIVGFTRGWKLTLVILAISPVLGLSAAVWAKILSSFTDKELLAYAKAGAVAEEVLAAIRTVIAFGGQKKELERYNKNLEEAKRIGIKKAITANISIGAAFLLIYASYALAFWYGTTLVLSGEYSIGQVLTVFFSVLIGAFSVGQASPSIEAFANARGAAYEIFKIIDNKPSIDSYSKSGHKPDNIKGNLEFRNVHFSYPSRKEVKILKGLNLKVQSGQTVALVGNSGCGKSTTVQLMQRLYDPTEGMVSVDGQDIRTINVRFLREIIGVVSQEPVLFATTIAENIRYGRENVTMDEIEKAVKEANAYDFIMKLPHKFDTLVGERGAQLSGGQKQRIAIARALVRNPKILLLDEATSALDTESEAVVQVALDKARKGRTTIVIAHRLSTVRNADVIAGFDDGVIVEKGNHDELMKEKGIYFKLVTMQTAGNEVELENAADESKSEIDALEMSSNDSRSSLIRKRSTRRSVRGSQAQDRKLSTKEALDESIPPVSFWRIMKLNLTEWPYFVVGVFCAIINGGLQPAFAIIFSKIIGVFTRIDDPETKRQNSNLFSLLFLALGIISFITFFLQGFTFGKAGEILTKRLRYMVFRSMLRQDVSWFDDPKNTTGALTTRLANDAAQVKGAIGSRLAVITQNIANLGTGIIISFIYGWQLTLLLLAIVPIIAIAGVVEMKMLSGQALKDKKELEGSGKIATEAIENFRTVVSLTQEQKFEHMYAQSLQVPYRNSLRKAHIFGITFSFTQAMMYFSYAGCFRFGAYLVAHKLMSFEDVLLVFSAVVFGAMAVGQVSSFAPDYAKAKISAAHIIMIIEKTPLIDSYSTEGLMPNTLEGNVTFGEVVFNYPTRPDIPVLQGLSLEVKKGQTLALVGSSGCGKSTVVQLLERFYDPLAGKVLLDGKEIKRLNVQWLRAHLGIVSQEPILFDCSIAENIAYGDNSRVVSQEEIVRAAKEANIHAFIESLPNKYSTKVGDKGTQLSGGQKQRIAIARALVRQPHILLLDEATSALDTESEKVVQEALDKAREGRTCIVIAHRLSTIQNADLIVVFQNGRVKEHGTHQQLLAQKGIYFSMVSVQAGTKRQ
T1 sequence (P08183 whole entry): as above

SMILES: COc1cccc2c1C(=O)c1c(O)c3c(c(O)c1C2=O)C[C@@](O)(C(=O)CO)C[C@@H]3O[C@H]1C[C@H](N)[C@H](O)[C@H](C)O1 [DOX, Doxorubicin]
- IC50 (KB-WT cells; [4]): 47.3 ± 19.7 nM
- FR (fold-resistance) (KB-WT cells; KB-WT, chemotherapeutic alone): 1.00
- IC50 (KB-VCR cells): 245 ± 39.8 nM
- FR (fold-resistance) (KB-VCR cells): 1.00

SMILES: CCCCCCCCNC(=NC#N)N1CCc2cc(OC)c(OC)cc2C1Cc1ccc(OC)c(OC)c1 (stereo not shown) [HZ08]
- IC50 (P-gp [1]): ~2440 nM and 2440 nM
- ATP consumed ([2]; VER 100μM + HZ08 0.625μM): 74.09±4.02 pmol ATP consumed/ μg P-gp / min
- Fold stimulation ([2]; VER 100μM + HZ08 0.625μM): 4.31
- ATP consumed ([2]; VER 100μM + HZ08 1.25μM): 73.10±1.34 pmol ATP consumed/ μg P-gp / min
- Fold stimulation ([2]; VER 100μM + HZ08 1.25μM): 4.26
- ATP consumed ([2]; VER 100μM + HZ08 5μM): 66.82±0.87 pmol ATP consumed/ μg P-gp / min
- Fold stimulation ([2]; VER 100μM + HZ08 5μM): 3.89
- ATP consumed ([2]; VER 100μM + HZ08 10μM): 63.11±1.71 pmol ATP consumed/ μg P-gp / min
- Fold stimulation ([2]; VER 100μM + HZ08 10μM): 3.67
- ATP consumed ([2]; VER 100μM + HZ08 20μM): 55.21±0.43 pmol ATP consumed/ μg P-gp / min
- Fold stimulation ([2]; VER 100μM + HZ08 20μM): 3.21
- ATP consumed ([2]; VER 100μM + HZ08 40μM): 41.25±3.00 pmol ATP consumed/ μg P-gp / min
- Fold stimulation ([2]; VER 100μM + HZ08 40μM): 2.40
- ATP consumed ([2]; VER 100μM + HZ08 80μM): 34.48±1.56 pmol ATP consumed/ μg P-gp / min
- Fold stimulation ([2]; VER 100μM + HZ08 80μM): 2.01
- ATP consumed ([2]; VER 100μM + HZ08 […]): 69.42±1.31 pmol ATP consumed/ μg P-gp / min
- Fold stimulation ([2]; VER 100μM + HZ08 […]): 4.04
- cytotoxicity as single agent (KB-WT cells; KB-WT, CCK-8, concentrations up to 20μM): no cytotoxicity
- FR of DOX (KB-WT cells; KB-WT, DOX + 5 μM modulator): 0.83
- FR of DOX (KB-WT cells; KB-WT, DOX + 10 μM modulator): 1.19
- FR of PTX (KB-WT cells; KB-WT, PTX + 5 μM modulator): 1.97
- FR of PTX (KB-WT cells; KB-WT, PTX + 10 μM modulator): 2.68
- FR of VCR (KB-WT cells; KB-WT, VCR + 5 μM modulator): 1.65
- FR of VCR (KB-WT cells; KB-WT, VCR + 10 μM modulator): 3.67
- cytotoxicity as single agent (KB-VCR cells; CCK-8, concentrations up to 20μM): no cytotoxicity
- FR of DOX (KB-VCR cells; DOX + 5 μM modulator): 3.84
- FR of DOX (KB-VCR cells; DOX + 10 μM modulator): 4.78
- FR of PTX (KB-VCR cells; PTX + 5 μM modulator): 120.06
- FR of PTX (KB-VCR cells; PTX + 10 μM modulator): 131.04
- FR of VCR (KB-VCR cells; VCR + 5 μM modulator): 173.46
- FR of VCR (KB-VCR cells; VCR + 10 μM modulator): 246.35
- mean tumor volume (KB-WT xenografts; [5]): 1193.11±84.95 mm^3
- tumor weight (KB-WT xenografts; [5]): 1.050 ± 0.080 g
- mean tumor volume (KB-WT xenografts; [6]): 872.92±301.72 mm^3
- tumor weight (KB-WT xenografts; [6]): 0.845 ± 0.183 g
- mean tumor volume (KB-VCR xenografts; [5]): 1536.36±190.04 mm^3
- tumor weight (KB-VCR xenografts; [5]): 1.222 ± 0.200 g
- tumor inhibition (tumor volume) (KB-VCR xenografts; 5 mg/kg modulator + VCR 2 mg/kg, compared with 2 mg/kg): a higher tumor inhibition was observed
- tumor weight (KB-VCR xenografts; [6]): 0.954 ± 0.175 g

SMILES: CC(=O)O[C@H]1C(=O)[C@@]2(C)[C@H]([C@H](OC(=O)c3ccccc3)[C@]3(O)C[C@H](OC(=O)[C@H](O)[C@@H](NC(=O)c4ccccc4)c4ccccc4)C(C)=C1C3(C)C)[C@]1(OC(C)=O)CO[C@@H]1C[C@@H]2O [PTX, paclitaxel]
- IC50 (KB-WT cells; [4]): 3.7 ± 0.9 nM
- FR (fold-resistance) (KB-WT cells; KB-WT, chemotherapeutic alone): 1.00
- IC50 (KB-VCR cells): 194 ± 17.7 nM
- FR (fold-resistance) (KB-VCR cells): 1.00

SMILES: CC[C@]1(O)C[C@H]2CN(CCc3c([nH]c4ccccc34)[C@@](C(=O)OC)(c3cc4c(cc3OC)N(C=O)[C@H]3[C@@](O)(C(=O)OC)[C@H](OC(C)=O)[C@]5(CC)C=CCN6CC[C@]43[C@@H]65)C2)C1 [VCR, Vincristine]
- Papp A→B at 90 min, 1 μM (P-gp [3]): 0.32 ± 0.1 ×10⁻⁶ cm/s
- Papp B→A at 90 min, 1 μM (P-gp [3]): 1.99 ± 0.28 ×10⁻⁶ cm/s
- IC50 (KB-WT cells): ~1.5 nM
- IC50 (KB-WT cells; [4]): 1.5 ± 0.2 nM
- IC50 (KB-VCR cells): 619 ± 158 nM
- mean tumor volume (KB-WT xenografts; VCR 2 mg/kg weekly i.v. alone): 1206.41±132.53 mm^3
- tumor weight (KB-VCR xenografts; VCR 2 mg/kg alone): 1.623 ± 0.233 g
- mean tumor volume (KB-VCR xenografts; VCR 2 mg/kg weekly i.v. alone): 2009.99±24.57 mm^3

SMILES: COc1ccc(CCN(C)CCCC(C#N)(c2ccc(OC)c(OC)c2)C(C)C)cc1OC (stereo not shown) [VER, verapamil]
- FR of DOX (KB-WT cells; KB-WT, DOX + 10 μM modulator): 1.27
- FR of PTX (KB-WT cells; KB-WT, PTX + 10 μM modulator): 2.03
- FR of VCR (KB-WT cells; KB-WT, VCR + 10 μM modulator): 1.83
- FR of DOX (KB-VCR cells; DOX + 10 μM modulator): 3.21
- FR of PTX (KB-VCR cells; PTX + 10 μM modulator): 20.6
- FR of VCR (KB-VCR cells; VCR + 10 μM modulator): 82.74
